In paper PMC3608651, “A Broad Profile of Co-Dominant Epitopes Shapes the Peripheral Mycobacterium tuberculosis Specific CD8+ T-Cell Immune Response in South African Patients with Active Tuberculosis” (PLoS ONE, 2013):

Tests used:
Format in all cases: binding
HLA-A*24:02 = HLA-A*24:02 (Homo sapiens, UniProt P04439, D101N/D140Y/D185E/E176V/E190D/F33S/G103R/G107R/I119L/I121M/I306V/K335N/L105A/L180Q/L300P/N151K/N90K/Q86E/Q94H/R106L/R138H/R89G/T104I/T345S/V100E/W191G/Y123F); conditions: percent relative the binding of positive control peptide […]; duplicated experiments; positive binder >40%
HLA-A*02:01 = HLA-A*02:01 (Homo sapiens, UniProt P04439, D140Y/D185E/D98H/E176V/E277Q/G131W/G231S/I119V/I121R/I166T/I218V/L300P/L318F/N151K/N90K/P208A/P217A/Q86G/Q94H/R138H/R169H/T345S); conditions: percent relative the binding of positive control peptide […]; plate-bound monomer 0.5 µg/ml; duplicated experiments; positive binder >40%
HLA-B*07:02 = HLA-B*07:02 (Homo sapiens, UniProt P01889); conditions: percent relative the binding of positive control peptide […]; duplicated experiments; positive binder >40%
HLA-B*58:01 = HLA-B*58:01 (Homo sapiens, UniProt P01889, A329T/C349S/D201E/D98Y/E176V/E187L/E204Q/E69T/G107R/I218V/I90N/K202T/L105A/L119I/N104I/N87E/Q89R/Q94S/R106L/R155S/R180L/R86G/S101N/S121R/S35A/S48A/T118I/V127L/V306I/V36M/Y140S/Y91M); conditions: percent relative the binding of positive control peptide […]; duplicated experiments; positive binder >40%
HLA-A*68:01 = HLA-A*68:01 (Homo sapiens, UniProt P04439, A269V/D185E/E176V/E277Q/E87N/F33Y/G231S/I121M/I166T/I218V/L180W/L300P/L318F/N151K/P208A/P217A/Q86R/R169H/T345S); conditions: percent relative the binding of positive control peptide […]; duplicated experiments; positive binder >40%
HLA-A*30:01 = HLA-A*30:01 (Homo sapiens, UniProt P04439, D140H/D185E/E176W/F33S/G80R/H175R/K168Q/R138E/R41S); conditions: percent relative the binding of positive control peptide […]; duplicated experiments; positive binder >40%
HLA-C*07:01 = HLA-C*07:01 (Homo sapiens, UniProt P10321, K90N/S123Y); conditions: percent relative the binding of positive control peptide […]; duplicated experiments; positive binder >40%
HLA-A*30:02 = HLA-A*30:02 (Homo sapiens, UniProt P04439, D101N/D140H/D185E/E176R/F33S/G80R/H175R/K168Q/Q94H/R138E/R41S/V100E); conditions: percent relative the binding of positive control peptide […]; duplicated experiments; positive binder >40%

Row | Substance | Bind A*24:02 (HLA-A*24:02) | Bind A*02:01 (HLA-A*02:01) | Bind B*07:02 (HLA-B*07:02) | Bind B*58:01 (HLA-B*58:01) | Bind A*68:01 (HLA-A*68:01) | Bind A*30:01 (HLA-A*30:01) | Bind C*07:01 (HLA-C*07:01) | Bind A*30:02 (HLA-A*30:02)
1 | ACGKAGCQT | 25% | 44% | 9% | 0% | 13% | 19% | 0% | 0%
2 | NAVFNFPPN | 14% | 24% | 5% | 28% | 27% | 0% | 2% | 70%
3 | SALLDPSQG | 0% | 0% | 3% | 8% | 0% | 12% | 9% | 62%
4 | GANIPAEFL | 0% | 41% | 0% | 16% | 0% | 0% | 0% | 0%
5 | SFYSDW YSP | 0% | 7% | 0% | 0% | 0% | 0% | 0% | 77%
6 | GGYKAADMW | 34% | 0% | 0% | 61% | 11% | 0% | 0% | 0%
7 | NAMKGDLQS | 45% | 14% | 6% | 0% | 15% | 6% | 20% | 0%
8 | SPACGKAGC | 0% | 16% | 77% | 0% | 0% | 0% | 0% | 0%
9 | KGDLQSSLG | 4% | 10% | 6% | 0% | 40% | 20% | 25% | 13%
10 | IVMPVGGQS | 0% | 44% | 51% | 0% | 0% | 0% | 0% | 56%
11 | GTPNELGGA | 0% | 49% | 0% | 0% | 0% | 0% | 0% | 0%
